From ChEMBL document CHEMBL4665893, “Scalable Synthesis, In Vitro cccDNA Reduction, and In Vivo Antihepatitis B Virus Activity of a Phosphonomethoxydeoxythreosyl Adenine Prodrug” (J Med Chem, 2020)
Activity calls are given as the source filed them. No cut-off for these calls is given here.

Assays:
[1] = Toxicity in C57BL/6 male mouse assessed as reduction in erythrocytes level at 60 mg/kg, po for 14 days by hematology analysis; format: organism-based; settings: in vivo, 336 h, time 14 day
[2] = Genotoxicity in Salmonella typhimurium TA1535 assessed as increase in number of spontaneous revertants colonies by Ames test; format: toxicity; settings: salmonella enterica subsp. enterica serovar typhimurium, 1 µM
[3] = Toxicity in C57BL/6 female mouse assessed as reduction in erythrocytes level at 60 mg/kg, po for 14 days by hematology analysis; format: organism-based; settings: in vivo, 336 h, time 14 day
[4] = Genotoxicity in Salmonella typhimurium at 1 uM by Ames test; format: toxicity; settings: salmonella enterica subsp. enterica serovar typhimurium
[5] = Toxicity in C57BL/6 male mouse assessed as increase in LDL-C level at 60 mg/kg, po for 14 days; format: organism-based; settings: in vivo, 336 h, time 14 day
[6] = Genotoxicity in Salmonella typhimurium TA100 assessed as increase in number of spontaneous revertants colonies by Ames test; format: toxicity; settings: salmonella enterica subsp. enterica serovar typhimurium, 1 µM
Hepatitis B virus [7] = test: Antiviral activity against adenovirus AdH294-WT harboring wild-type HBV genotype D accession #V01460 infected in human HepG2 cells assessed as reduction in viral replicative intermediate DNA level at 4 nM incubated for 5 days by Southern blot analysis (reference value: 100%); format: functional; set-up: scale not given: the % may be the effect or the level left; settings: time 5 day
[8] = Toxicity in C57BL/6 female mouse assessed as reduction in mean corpuscular volume level at 60 mg/kg, po for 14 days by hematology analysis; format: organism-based; settings: in vivo, 336 h, time 14 day
Hepatitis B virus [9] = test: Antiviral activity against ETV-resistant and adenovirus AdH294-7LR harboring wild-type HBV infected in human HepG2 cells assessed as viral replicative intermediate DNA level at 4 nM incubated for 5 days by Southern blot analysis (reference value: 100%); format: functional; settings: time 5 day
[10] = Toxicity in C57BL/6 female mouse assessed as effect on clinical chemistry level at 60 mg/kg, po for 14 days; format: organism-based; settings: in vivo, 336 h, time 14 day
[11] = Toxicity in C57BL/6 female mouse assessed as reduction in lymphocytes level at 60 mg/kg, po for 14 days by hematology analysis; format: organism-based; settings: in vivo, 336 h, time 14 day
Hepatitis B virus [12] = test: Antiviral activity against adenovirus AdH294-WT harboring wild-type HBV genotype D accession #V01460 infected in human HepG2 cells assessed as reduction in viral replicative intermediate DNA level at 40 nM incubated for 5 days by Southern blot analysis (reference value: 100%); format: functional; set-up: scale not given: the % may be the effect or the level left; settings: time 5 day
Hepatitis B virus [13] = test: Antiviral activity against ETV-resistant and adenovirus AdH294-7LR harboring wild-type HBV infected in human HepG2 cells assessed as viral replicative intermediate DNA level at 10000 nM incubated for 5 days by Southern blot analysis (reference value: 100%); format: functional; settings: time 5 day
[14] = Toxicity in C57BL/6 mouse assessed as induction of functional deficit at 60 mg/kg, po for 14 days; format: organism-based; settings: in vivo, 336 h, time 14 day
[15] = Toxicity in C57BL/6 female mouse assessed as increase in thymus weight level at 60 mg/kg, po for 14 days; format: organism-based; settings: in vivo, 336 h, time 14 day
Hepatitis B virus [16] = test: Antiviral activity against ETV-resistant and adenovirus AdH294-7LR harboring wild-type HBV infected in human HepG2 cells assessed as viral replicative intermediate DNA level at 13 nM incubated for 5 days by Southern blot analysis (reference value: 100%); format: functional; settings: time 5 day
[17] = Toxicity in C57BL/6 mouse assessed as induction of body weight loss at 60 mg/kg, po for 14 days relative to control; format: organism-based; settings: in vivo, 336 h, time 14 day
[18] = Plasma concentration in C57BL/6 mouse at 6 mg/kg, po administered as single dose after 0.25 to 24 hrs by LC/MS/MS analysis; format: ADME, organism-based; settings: in vivo, time 0.25-24 hrs
[19] = Genotoxicity in Salmonella typhimurium TA98 assessed as increase in number of spontaneous revertants colonies by Ames test; format: toxicity; settings: salmonella enterica subsp. enterica serovar typhimurium, 1 µM
[20] = Toxicity in C57BL/6 male mouse assessed as reduction in food consumption loss at 60 mg/kg, po for 11 days relative to control; format: organism-based; settings: in vivo, 264 h, time 11 day
[21] = Toxicity in C57BL/6 male mouse assessed as reduction in lymphocytes level at 60 mg/kg, po for 14 days by hematology analysis; format: organism-based; settings: in vivo, 336 h, time 14 day
[22] = Toxicity in human HepDE19 cells assessed as reduction in beta-actin level incubated for 9 days by qPCR analysis; format: cell-based; settings: time 9 day
[23] = Toxicity in C57BL/6 female mouse assessed as reduction in hemoglobin level at 60 mg/kg, po for 14 days by hematology analysis; format: organism-based; settings: in vivo, 336 h, time 14 day
Hepatitis B virus [24] = test: Antiviral activity against ETV-resistant and adenovirus AdH294-7LR harboring wild-type HBV infected in human HepG2 cells assessed as viral replicative intermediate DNA level at 120 nM incubated for 5 days by Southern blot analysis (reference value: 100%); format: functional; settings: time 5 day
[25] = Toxicity in C57BL/6 male mouse assessed as reduction in mean corpuscular volume level at 60 mg/kg, po for 14 days by hematology analysis; format: organism-based; settings: in vivo, 336 h, time 14 day
[26] = Toxicity in C57BL/6 mouse assessed as induction of mortality at 60 mg/kg, po for 14 days; format: organism-based; settings: in vivo, 336 h, time 14 day
[27] = Toxicity in C57BL/6 male mouse assessed as effect on clinical chemistry level at 60 mg/kg, po for 14 days; format: organism-based; settings: in vivo, 336 h, time 14 day
[28] = Toxicity in C57BL/6 male mouse assessed as effect on organ weight level at 60 mg/kg, po for 14 days; format: organism-based; settings: in vivo, 336 h, time 14 day
Hepatitis B virus [29] = test: Antiviral activity against HBV infected hydrodynamic injection C57BL/6 mouse model assessed as reduction in serum HBV DNA level at 0.6 to 60 mg/kg, po QD for 6 days by qPCR analysis; format: functional, organism-based; settings: dose mg/kg 0.6-60, time 6.0 day
[30] = Toxicity in C57BL/6 male mouse assessed as increase in neutrophils level at 60 mg/kg, po for 14 days by hematology analysis; format: organism-based; settings: in vivo, 336 h, time 14 day
Hepatitis B virus [31] = test: Antiviral activity against adenovirus AdH294-WT harboring wild-type HBV genotype D accession #V01460 infected in human HepG2 cells assessed as reduction in viral replicative intermediate DNA level at 3300 nM incubated for 5 days by Southern blot analysis (reference value: 100%); format: functional; set-up: scale not given: the % may be the effect or the level left; settings: time 5 day
Hepatitis B virus [32] = test: Antiviral activity against adenovirus AdH294-WT harboring wild-type HBV genotype D accession #V01460 infected in human HepG2 cells assessed as reduction in viral replicative intermediate DNA level at 10000 nM incubated for 5 days by Southern blot analysis (reference value: 100%); format: functional; set-up: scale not given: the % may be the effect or the level left; settings: time 5 day
Hepatitis B virus [33] = test: Antiviral activity against adenovirus AdH294-WT harboring wild-type HBV genotype D accession #V01460 infected in human HepG2 cells assessed as reduction in viral replicative intermediate DNA level at 13 nM incubated for 5 days by Southern blot analysis (reference value: 100%); format: functional; set-up: scale not given: the % may be the effect or the level left; settings: time 5 day
Hepatitis B virus [34] = test: Antiviral activity against HBV infected in human HepDE19 cells assessed as reduction in HBV cccDNA incubated for 9 days by qPCR analysis; format: functional, organism-based; settings: HepDE19, 216 h
[35] = Toxicity in C57BL/6 male mouse assessed as reduction in hemoglobin level at 60 mg/kg, po for 14 days by hematology analysis; format: organism-based; settings: in vivo, 336 h, time 14 day
Hepatitis B virus [36] = test: Antiviral activity against adenovirus AdH294-WT harboring wild-type HBV genotype D accession #V01460 infected in human HepG2 cells assessed as reduction in viral replicative intermediate DNA level at 370 nM incubated for 5 days by Southern blot analysis (reference value: 100%); format: functional; set-up: scale not given: the % may be the effect or the level left; settings: time 5 day
Hepatitis B virus [37] = test: Antiviral activity against adenovirus AdH294-WT harboring wild-type HBV genotype D accession #V01460 infected in human HepG2 cells assessed as reduction in viral replicative intermediate DNAs incubated for 5 days by Southern blot analysis; format: functional, organism-based; settings: genotype D accession #V01460, HepG2, 120 h
Hepatitis B virus [38] = test: Antiviral activity against ETV-resistant and adenovirus AdH294-7LR harboring wild-type HBV infected in human HepG2 cells assessed as viral replicative intermediate DNA level at 1100 nM incubated for 5 days by Southern blot analysis (reference value: 100%); format: functional; settings: time 5 day
[39] = Toxicity in C57BL/6 female mouse assessed as increase in neutrophils level at 60 mg/kg, po for 14 days by hematology analysis; format: organism-based; settings: in vivo, 336 h, time 14 day
Hepatitis B virus [40] = test: Antiviral activity against adenovirus AdH294-WT harboring wild-type HBV genotype D accession #V01460 infected in human HepG2 cells assessed as reduction in viral replicative intermediate DNA level at 1100 nM incubated for 5 days by Southern blot analysis (reference value: 100%); format: functional; set-up: scale not given: the % may be the effect or the level left; settings: time 5 day
[41] = Toxicity in HBV infected hydrodynamic injection C57BL/6 mouse model assessed as effect on body weight at 0.6 to 60 mg/kg, po QD for 6 days; format: organism-based; settings: in vivo, 144 h, dose 0.6-60 mg/kg, time 6 day
[42] = Genotoxicity in Salmonella typhimurium TA1537 assessed as increase in number of spontaneous revertants colonies by Ames test; format: toxicity; settings: salmonella enterica subsp. enterica serovar typhimurium, 1 µM
Hepatitis B virus [43] = test: Antiviral activity against ETV-resistant and adenovirus AdH294-7LR harboring wild-type HBV infected in human HepG2 cells assessed as viral replicative intermediate DNA level at 370 nM incubated for 5 days by Southern blot analysis (reference value: 100%); format: functional; settings: time 5 day
Hepatitis B virus [44] = test: Antiviral activity against ETV-resistant and adenovirus AdH294-7LR harboring wild-type HBV infected in human HepG2 cells assessed as viral replicative intermediate DNA level at 3300 nM incubated for 5 days by Southern blot analysis (reference value: 100%); format: functional; settings: time 5 day
[45] = Toxicity in C57BL/6 female mouse assessed as reduction in hematocrit level at 60 mg/kg, po for 14 days by hematology analysis; format: organism-based; settings: in vivo, 336 h, time 14 day
Hepatitis B virus [46] = test: Antiviral activity against ETV-resistant and adenovirus AdH294-7LR harboring wild-type HBV infected in human HepG2 cells assessed as reduction in viral replicative intermediate DNAs at 4 to 1000 nM incubated for 5 days by Southern blot analysis; format: functional, organism-based; settings: time 5.0 day
[47] = Selectivity index, […] against HBV infected in human HepDE19 cells to CC50 for toxicity in human HepDE19 cells; format: cell-based; settings: read-out: Ratio CC50/IC50
[48] = Toxicity in C57BL/6 female mouse assessed as effect on organ weight level at 60 mg/kg, po for 14 days; format: organism-based; settings: in vivo, 336 h, time 14 day
Hepatitis B virus [49] = test: Antiviral activity against adenovirus AdH294-WT harboring wild-type HBV genotype D accession #V01460 infected in human HepG2 cells assessed as reduction in viral replicative intermediate DNA level at 120 nM incubated for 5 days by Southern blot analysis (reference value: 100%); format: functional; set-up: scale not given: the % may be the effect or the level left; settings: time 5 day
[50] = Toxicity in C57BL/6 male mouse assessed as reduction in hematocrit level at 60 mg/kg, po for 14 days by hematology analysis; format: organism-based; settings: in vivo, 336 h, time 14 day
Hepatitis B virus [51] = test: Antiviral activity against ETV-resistant and adenovirus AdH294-7LR harboring wild-type HBV infected in human HepG2 cells assessed as viral replicative intermediate DNA level at 40 nM incubated for 5 days by Southern blot analysis (reference value: 100%); format: functional; settings: time 5 day

CC(C)CCOC(=O)C[C@H](NP(=O)(CO[C@H]1CO[C@@H](n2cnc3c(N)ncnc32)C1)Oc1ccccc1)C(=O)OCCC(C)C (mixture of isomers)
Activity [1]: Toxic
Activity [2]: Non-Toxic
Activity [3]: Non-Toxic
Activity [4]: Non-Toxic
Activity [5]: Toxic
Activity [6]: Non-Toxic
Activity (Hepatitis B virus [7]): 39.1%
Activity [8]: Non-Toxic
Activity (Hepatitis B virus [9]): 98.2%
Activity [10]: Non-Toxic
Activity [11]: Non-Toxic
Activity (Hepatitis B virus [12]): 12.9%
Activity (Hepatitis B virus [13]): 5.9%
Activity [14]: Non-Toxic
Activity [15]: Toxic
Activity (Hepatitis B virus [16]): 101.5%
Activity [17]: 4%
Cp [18]: < 1.01 ng/mL
Activity [19]: Non-Toxic
Activity [20]: Toxic
Activity [21]: Toxic
CC50 at 216 h [22]: 230 nM
Activity [23]: Non-Toxic
Activity (Hepatitis B virus [24]): 38.5%
Activity [25]: Toxic
Activity [26]: Non-Toxic
Activity [27]: Non-Toxic
Activity [28]: Non-Toxic
Activity (Hepatitis B virus [29]): Active
Activity [30]: Toxic
Activity (Hepatitis B virus [31]): 0%
Activity (Hepatitis B virus [32]): 0%
Activity (Hepatitis B virus [33]): 22.4%
IC50 (Hepatitis B virus [34]): 6 nM
IC90 (Hepatitis B virus [34]; time 9 day): 70 nM
Activity [35]: Toxic
Activity (Hepatitis B virus [36]): 1.8%
EC50 (Hepatitis B virus [37]): < 4 nM
Activity (Hepatitis B virus [38]): 18.1%
Activity [39]: Non-Toxic
Activity (Hepatitis B virus [40]): 0.7%
Activity [41]: Non-Toxic
Activity [42]: Non-Toxic
Activity (Hepatitis B virus [43]): 20.2%
Activity (Hepatitis B virus [44]): 11.7%
Activity [45]: Non-Toxic
Activity (Hepatitis B virus [46]): Active
selectivity ratio [47]: 37
Activity [48]: Non-Toxic
Activity (Hepatitis B virus [49]): 7.5%
Activity [50]: Toxic
Activity (Hepatitis B virus [51]): 59.1%
